This is an account of results in PMC10527105, “Chirality Matters: Fine-Tuning of Novel Monoamine Reuptake Inhibitors Selectivity through Manipulation of Stereochemistry” (Biomolecules, 2023).

The structures appear in SMILES notation. Where “and” joins values, the source holds several entries; their conditions need not be identical. Identical values can stand only once. Like-named read-outs stand apart in the source and are kept apart here. Where only a bound is given, the exact number is not on record here.

The test system of one data set is rat cortical neurons. Put plainly: Neurite outgrowth assay (Cyprotex). It is filed as cell-based. The settings on record: for IC50: 72 h. As for the experimental part:
Neurite outgrowth assay. […] were carried out by Cyprotex (an Evotec Company, Toulouse, France), Study No. CYP2052-R1. For an in-depth description, please refer to the report in the supporting information files. Cryo-preserved rat cortical neurons (QBM Cell Science, R-Cx-500) were quickly thawed and slowly diluted with neurobasal medium supplemented with L-glutamine (Invitrogen, Cat. No. 25030-081), penicillin-streptomycin (Invitrogen, Cat. No. 15140-122), and B27 (NB/B27 medium, Invitrogen, Cat. No. 17504-044). After a gentle centrifugation step, the neurons were resuspended in NB/B27 medium at a density of 4.0 × 10^6 cells/mL. One hour prior to treatment, the neurons were plated in 384-well plates (Corning 354663) pre-coated with a laminin solution (Sigma L2020 1 mg/mL) at a density of 10,000 cells per well. After treatment with test articles and control compounds, the neurons were maintained in a humidified environment at 37 °C with 5% CO2 for 72 h. At the end of the treatment period, the neurons were fixed for 1 h with a 3.7% formaldehyde solution (Acros Organics, 41073-0010). The neurons were washed with phosphate buffered saline (PBS) (SH30264.02) and permeabilized for 10 min with a 0.5% solution of Triton X-100 (Millipore Sigma, X100). After another wash step, the neurons were stained for one hour with Hoechst 33342 (ThermoFisher Scientific, H3570) and the anti-beta III tubulin antibody, Alexa Fluor® 488 conjugate (Millipore Sigma AB15708A4), diluted in a blocking buffer solution (Thermo Scientific, 37525). Upon completion of the staining step, the neurons were washed again, and the plates were sealed in preparation for the imaging process. The neurons were evaluated for neurite outgrowth and cell health using the high-content imaging platform, ArrayScan VTi (Thermo Scientific ArrayScan VTi), with an optimized neuronal profiling bio-application.
This assay assessed cell health and neurite outgrowth utilizing a neuronal profiling bio-application applied to images obtained on an ArrayScan VTi. Valid neuron count, mean neurite average length, and neurite total length per neuron were determined and reported. Raw data were normalized to the vehicle control and reported as a normalized% response. Dose response graphs were generated with GraphPad Prism using a sigmoidal dose-response (variable slope) algorithm.

Data set [1] concerns the target T1, human serotonin transporter/SLC6A4 (SERT) (Homo sapiens, UniProt P31645).
T1 construct: expressed in transfected cells; host or cells: HEK293
Put plainly: Cellular uptake experiments: [3H]-serotonin reuptake inhibition in transporter-expressing HEK293 cells. It is filed as cell-based. Summed up:
(§1)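 Stably transfected HEK293 cells preincubated 5 min with compound, then 1 µM [3H]-substrate for 2.5 min (SERT: 5 min) at 25 °C, pH 7.1 buffer; uptake counted by scintillation. Nonspecific uptake defined with 10 µM mazindol (DAT, NET) or 10 µM clomipramine (SERT).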

The target in data set [2] is T2, noradrenaline transporter/SLC6A2 (NET) (Homo sapiens, UniProt P23975).
T2 construct: expressed in transfected cells; host or cells: HEK293
Put plainly: Cellular uptake experiments: [3H]-noradrenaline reuptake inhibition in transporter-expressing HEK293 cells. It is filed as cell-based. Conditions: cells stably expressing NET, [3H]-noradrenaline 1 µM, screening cut-off 50 µM. Summed up: as §1

The target of data set [3] is T3, human dopamine transporter/SLC6A3 (DAT) (Homo sapiens, UniProt Q01959).
T3 construct: expressed in transfected cells; host or cells: HEK293
Put plainly: Cellular uptake experiments: [3H]-dopamine reuptake inhibition in transporter-expressing HEK293 cells. The settings on record: cells stably expressing DAT, [3H]-dopamine 1 µM, screening cut-off 50 µM. It is filed as cell-based. Summed up:
as §1

Data set [4] concerns the target T2, noradrenaline transporter/SLC6A2 (NET). The settings on record: cells stably expressing NET; ref [35]; read-out: Reuptake Inhibition (IC50 ± SE, µM) NET; cited from earlier work.
Setting [5] is: Reuptake Inhibition (IC50 ± SE, µM) NET.
The mark [6] stands for this setting: read-out: Reuptake Inhibition (IC50 ± SE, µM) SERT; cells stably expressing SERT; [3H]-serotonin 1 µM; screening cut-off 50 µM.
The mark [7] stands for this setting: Reuptake Inhibition (IC50 ± SE, µM) DAT.
[8] abbreviates: Reuptake Inhibition (IC50 ± SE, µM) SERT, cells stably expressing SERT; [3H]-serotonin 1 µM; screening cut-off 50 µM.
Setting [9] is: read-out: Reuptake Inhibition (IC50 ± SE, µM) NET.

T1 sequence (P31645 whole entry): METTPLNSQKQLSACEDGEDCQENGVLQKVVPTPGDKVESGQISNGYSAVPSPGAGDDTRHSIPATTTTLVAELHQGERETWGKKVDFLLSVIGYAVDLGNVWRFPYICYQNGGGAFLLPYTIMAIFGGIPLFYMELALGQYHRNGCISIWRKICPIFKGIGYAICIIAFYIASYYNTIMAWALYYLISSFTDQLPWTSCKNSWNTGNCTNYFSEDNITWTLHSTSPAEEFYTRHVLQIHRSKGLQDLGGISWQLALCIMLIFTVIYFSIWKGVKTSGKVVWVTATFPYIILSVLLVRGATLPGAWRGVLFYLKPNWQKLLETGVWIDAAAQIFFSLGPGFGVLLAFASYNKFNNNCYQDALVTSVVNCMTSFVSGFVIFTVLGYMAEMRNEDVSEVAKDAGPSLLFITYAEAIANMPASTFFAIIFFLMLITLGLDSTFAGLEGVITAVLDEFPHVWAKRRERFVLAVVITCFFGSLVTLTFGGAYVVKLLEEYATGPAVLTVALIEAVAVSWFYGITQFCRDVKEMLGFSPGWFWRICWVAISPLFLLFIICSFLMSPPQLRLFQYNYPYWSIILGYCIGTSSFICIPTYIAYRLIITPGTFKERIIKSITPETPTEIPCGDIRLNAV
T2 sequence (P23975 whole entry): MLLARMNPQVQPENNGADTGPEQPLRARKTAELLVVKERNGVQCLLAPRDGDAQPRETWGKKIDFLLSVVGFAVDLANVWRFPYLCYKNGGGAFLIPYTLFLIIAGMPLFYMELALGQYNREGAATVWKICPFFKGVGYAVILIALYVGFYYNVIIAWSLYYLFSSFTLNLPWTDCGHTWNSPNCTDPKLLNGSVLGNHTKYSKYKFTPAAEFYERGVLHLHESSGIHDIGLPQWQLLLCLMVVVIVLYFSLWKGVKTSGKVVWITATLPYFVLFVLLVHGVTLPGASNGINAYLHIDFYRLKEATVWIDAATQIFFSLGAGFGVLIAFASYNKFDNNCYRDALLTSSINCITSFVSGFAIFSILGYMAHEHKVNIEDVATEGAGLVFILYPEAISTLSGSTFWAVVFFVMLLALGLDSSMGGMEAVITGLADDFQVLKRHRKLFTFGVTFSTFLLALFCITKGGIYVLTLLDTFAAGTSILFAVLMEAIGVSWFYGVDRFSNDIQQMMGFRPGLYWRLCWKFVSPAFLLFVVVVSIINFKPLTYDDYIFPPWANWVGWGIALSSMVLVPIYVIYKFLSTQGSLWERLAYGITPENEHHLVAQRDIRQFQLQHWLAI
T3 sequence (Q01959 whole entry): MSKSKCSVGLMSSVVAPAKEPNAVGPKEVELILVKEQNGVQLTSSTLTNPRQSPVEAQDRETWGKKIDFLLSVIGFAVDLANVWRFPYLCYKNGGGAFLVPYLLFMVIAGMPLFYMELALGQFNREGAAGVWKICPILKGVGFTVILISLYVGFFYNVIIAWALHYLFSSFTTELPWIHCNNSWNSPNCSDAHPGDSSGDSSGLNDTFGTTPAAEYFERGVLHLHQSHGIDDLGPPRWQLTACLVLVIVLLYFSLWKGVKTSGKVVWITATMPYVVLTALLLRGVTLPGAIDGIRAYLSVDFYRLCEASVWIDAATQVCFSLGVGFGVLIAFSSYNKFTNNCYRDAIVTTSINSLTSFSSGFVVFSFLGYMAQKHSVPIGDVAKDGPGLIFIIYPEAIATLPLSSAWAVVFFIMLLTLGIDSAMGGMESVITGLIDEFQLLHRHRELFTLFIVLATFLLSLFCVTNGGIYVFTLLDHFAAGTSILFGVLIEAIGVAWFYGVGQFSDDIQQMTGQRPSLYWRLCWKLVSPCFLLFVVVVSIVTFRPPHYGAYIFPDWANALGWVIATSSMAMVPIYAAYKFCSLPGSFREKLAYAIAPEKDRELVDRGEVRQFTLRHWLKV

In the case of `CN(C)CCCN1c2ccccc2Sc2ccc(Cl)cc21` [Chlorpromazine, reference compound], the IC50 (usually the concentration at which inhibition is half-maximal) worked out at 9.02 µM in the data set on rat cortical neurons (Rattus norvegicus, Cortical neurone, read-out: Mean Neurite Avg. Length IC50, rat cortical neurons, 72 h); 13.8 µM with rat cortical neurons (Rattus norvegicus, Cortical neurone, read-out: Neurite Total Length per Neuron IC50, rat cortical neurons, 72 h); 7.99 µM with rat cortical neurons (Rattus norvegicus, Cortical neurone, read-out: Valid Neuron Count IC50, rat cortical neurons, 72 h); 9.02 µM in the data set with rat cortical neurons (read-out: Mean Neurite Avg. Length IC50, rat cortical neurons). Moreover, in the data set with rat cortical neurons (rat cortical neurons), the “effect on neurite outgrowth in relation to effect on cell viability” value is recorded as “not independent of its effect on cell viability”.

Turning to `Cc1ccc([C@@H](c2ccccc2)[S@+]([O-])Cc2cccs2)cc1` [Compound 8n, (R,R)-2-(((phenyl(p-tolyl)methyl)sulfinyl)methyl)thiophene], the IC50 in data set [1] (cells stably expressing SERT; [3H]-serotonin 1 µM; screening cut-off 50 µM; read-out: Reuptake Inhibition (IC50 ± SE, µM) SERT) is 25 ± 4 µM; in data set [2] (setting [5]), above 50 µM; in data set [3] (read-out: Reuptake Inhibition (IC50 ± SE, µM) DAT), 4 µM and 4.01 µM.

With `[O-][S+](Cc1cccs1)C(c1ccccc1)c1ccccc1C(F)(F)F` (stereo not shown) [Compound 8o, 2-(((phenyl(2-(trifluoromethyl)phenyl)methyl)sulfinyl)methyl)thiophene], the IC50 in data set [1] (setting [6]) is above 50 µM; in data set [2] (setting [5]), above 50 µM; in data set [3] (setting [7]) it was 8.9 ± 0.7 µM.

For the molecule `[O-][S+](Cc1cccs1)C(c1ccccc1)c1cccc(C(F)(F)F)c1` (stereo not shown) [Compound 8p, 2-(((phenyl(3-(trifluoromethyl)phenyl)methyl)sulfinyl)methyl)thiophene], the IC50 in data set [1] (setting [8]) was 31 ± 5 µM; in data set [2] (setting [9]) it was above 50 µM; in data set [3] (setting [7]), 6.2 ± 0.6 µM.

Turning to `[O-][S+](Cc1cccs1)C(c1ccccc1)c1ccc(C(F)(F)F)cc1` (stereo not shown) [Compound 8q, 2-(((phenyl(4-(trifluoromethyl)phenyl)methyl)sulfinyl)methyl)thiophene], the figures for the IC50 in data set [1] (setting [8]), in data set [2] (setting [9]) and in data set [3] (setting [7]) were 4.7 ± 0.5 µM, above 50 µM and 21 ± 2 µM, respectively.

With `COc1ccccc1C(c1ccccc1)[S+]([O-])Cc1cccs1` [Compound 8r, (S,S)-2-((((2-methoxyphenyl)(phenyl)methyl)sulfinyl)methyl)thiophene], the IC50 in data set [1] (setting [8]), in data set [2] (setting [5]) and in data set [3] (setting [7]) was above 50 µM in each case.

Turning to `COc1cccc(C(c2ccccc2)[S+]([O-])Cc2cccs2)c1` (stereo not shown) [Compound 8s, 2-((((3-methoxyphenyl)(phenyl)methyl)sulfinyl)methyl)thiophene], the half-inhibitory concentration (IC50) in data set [1] (setting [8]), in data set [2] (setting [9]) and in data set [3] (setting [7]) was above 50 µM throughout.

As for `COc1ccc([C@H](c2ccccc2)[S@+]([O-])Cc2cccs2)cc1` [Compound 8t, (R,S)-2-((((4-methoxyphenyl)(phenyl)methyl)sulfinyl)methyl)thiophene], the IC50 in data set [1] (setting [8]), in data set [2] (setting [5]) and in data set [3] (setting [7]) was above 50 µM each time.

`[O-][S+](Cc1cccs1)C(c1ccc(F)cc1)c1ccc(Cl)cc1` (stereo not shown) [Compound 8u, 2-((((4-chlorophenyl)(4-fluorophenyl)methyl)sulfinyl)methyl)thiophene]: the IC50 in data set [1] (setting [6]) is above 50 µM; in data set [2] (setting [9]), above 50 µM; in data set [3] (setting [7]), 5.4 ± 1 µM.

As for `COC(=O)Nc1nc2ccc(C(=O)c3cccs3)cc2[nH]1` [Nocodazole, reference compound], the IC50 in the data set with rat cortical neurons (Cortical neurone, rat cortical neurons, read-out: Mean Neurite Avg. Length IC50) was 0.097 µM; in the data set on rat cortical neurons (Cortical neurone, rat cortical neurons, read-out: Neurite Total Length per Neuron IC50), 0.0997 µM; with rat cortical neurons (Cortical neurone, rat cortical neurons, read-out: Valid Neuron Count IC50) it was 2.22 µM. Further, in the data set with rat cortical neurons (rat cortical neurons), the “effect on neurite outgrowth in relation to effect on cell viability” value is “positive for substantially affecting neurite outgrowth while nominally affecting cell viability”.

Take `NC(=O)C[S@@+]([O-])C(c1ccccc1)c1ccccc1` [R-Modafinil]: the IC50 in data set [4] was 169 ± 90 µM.
